Our source for the Km values is publication PMC12418644, “Production, optimization and characterization of esterase isolated from a new endophytic Trichoderma afroharzianum strain AUMC 16,433 and its applications in dye decolorization” (Microbial Cell Factories, 2025).

The experiment concerns T1, T. afroharzianum esterase (purified extracellular esterase).
T1 construct: 43 kDa by SDS-PAGE and gel filtration; monomeric
The experiment is described as follows: p-nitrophenol release at […] nm, Lineweaver-Burk plot. It counts as biochemical, Trichoderma afroharzianum. To be noted: 50 mM Tris pH 8, 37 °C (standard assay), 1-10 mM substrate.

As for `CC(=O)Oc1ccc([N+](=O)[O-])cc1` [p-NPA, p-nitrophenyl acetate], the Km was determined as 3.33 mM.
